Measured values as given in patent US12565640B2, “Method for inducing ureteric bud-like tissue” (Kyoto University, priority 2017, dated 2026).
Entries after “also recorded” stand apart in the source; their conditions may differ.

Key:
[1] = system: anterior intermediate mesoderm cells; experiment: Induction of Wolffian duct cells from anterior intermediate mesoderm cells (immunostaining, cell counts); format: cell-based, human; conditions: for differentiation of Wolffian duct cells (OSR1^−GATA3^+PAX2^+) from anterior intermediate mesoderm cells / Total cell numbers after treatment: 3D45 cells; for Total cell numbers after treatment: FIG. 2E, mean±s.d., n=3, before treatment 1.44±0.29; for number of GATA3^+ (Wolffian duct) cells: supplementation during Wolffian duct induction
Description: Anterior intermediate mesoderm cells were treated with Essential 6 medium containing 1 μM CHIR99021, 0.1 μM LDN193189, 200 ng/ml FGF8 and 100 ng/ml glial cell line-derived neurotrophic factor (GDNF; R&D Systems) with or without 0.1 μM TTNPB for 2 days to enhance Wolffian duct leading edge cell induction. Then, the cells were dissociated into single cells by gentle pipetting after treatment with Accutase (Innovative Cell Technologies). The cells were seeded onto low-attachment 96-well plates (Sumitomo Bakelite) at a density of 1×10^4 cells/well in Essential 6 medium with 100 ng/ml GDNF, 200 ng/ml FGF1 (R&D Systems), 0.1 μM TTNPB, 3 μM CHIR99021 and 10 μM Thiazovivin (Santa Cruz Biotechnology) and incubated for 2 days to induce mature Wolffian duct aggregates.
(§1) The cells were fixed with 4% PFA/PBS for 20 min at 4° C. After washing with PBS, the cells were blocked with 1% normal donkey serum (Millipore) and 3% bovine serum albumin (BSA; Nacalai Tesque)/PBST (PBS/0.25% Triton X-100) for 1 h at room temperature. Primary antibodies were diluted in blocking solution and incubated with samples overnight at 4° C. Secondary antibodies were incubated for 1 h at room temperature.

[2] = system: anterior primitive streak (APS) cells; experiment: Induction of anterior intermediate mesoderm cells from hiPSCs via anterior primitive streak (immunostaining, flow cytometry); format: cell-based, human; conditions: for effect on induction efficiency / differentiation of OSR1^+GATA3^+ cells: added to the anterior intermediate mesoderm induction stage, 10 ng/ml BMP4 or 0.1 μM LDN193189
Description: Undifferentiated hiPSCs/ESCs were plated at a density of 2.5×10^4 cells/cm^2 onto tissue culture plates in maintenance medium with 10 μM Y-27632 and iMatrix-511 silk. After 24 h, the cells were washed with PBS and treated with Essential 6 medium (Thermo Fisher Scientific) containing 100 ng/ml Activin A (R&D Systems) and 3 μM CHIR99021 (Stem RD) with or without 10 ng/ml bone morphogenetic protein (BMP)4 (PeproTech) for 24 h.
To induce anterior intermediate mesoderm, the anterior primitive streak cells were treated with 200 ng/ml fibroblast growth factor (FGF) 8 (Peprotech), 0.1 μM 4-[(E)-2-(5,6,7,8-Tetrahydro-5,5,8,8-tetramethyl-2-naphthalenyl)-1-propenyl]-benzoic acid (TTNPB; Santa Cruz Biotechnology), 1 μM A83-01 and 0.1 μM LDN193189 for 2 days. Then, the cells were replated onto Matrigel-coated plates at a density of 1×10^5 cells/cm^2 in the anterior intermediate mesoderm induction medium with 10 μM Y-27632 and incubated for an additional 24 h.
as §1
After dissociation with Accutase, the cells were fixed, permeabilized and blocked with a BD Cytofix/Cytoperm Kit (Becton Dickinson). Then the cells were incubated with primary antibodies diluted at 1:100 in blocking solution for 30 min at room temperature. After washing twice, the cells were incubated with secondary antibodies diluted at 1:500 in blocking solution for 30 min at room temperature. The cells were then analyzed using FACS AriaII cell sorter (Becton Dickinson).

[3] = added to anterior intermediate mesoderm cells, immunostaining

Cc1ccc(C2=CCC(C)(C)c3ccc(C#Cc4ccc(C(=O)O)cc4)cc32)cc1 [AGN193109]
RET expression (Wolffian duct cell marker) [1, 3]: diminished RET expression; also recorded: decreased the expression of RET

Cc1cccc(-c2nn(C(=S)Nc3ccccc3)cc2-c2ccnc3ccccc23)n1 [A83-01, 3-(6-Methyl-2-pyridinyl)-N-phenyl-4-(4-quinolinyl)-1H-pyrazole-1-carbothioamide]
differentiation of SOX17^+ definitive endoderm cells ([2]; 1 μM A83-01 added to FGF8 and TTNPB, immunostaining): diminished; also recorded: decreases the differentiation into definitive endoderm cells | induction of anterior intermediate mesoderm-like cells (OSR1, GATA3 immunostaining) ([2]; treatment of APS cells): without inhibiting the induction of anterior intermediate mesoderm-like cells

Cc1c[nH]c(-c2cnc(NCCNc3ccc(C#N)cn3)nc2-c2ccc(Cl)cc2Cl)n1 [CHIR99021, 6-[2-[4-(2,4-Dichlorophenyl)-5-(4-methyl-1H-imidazol-2-yl)pyrimidin-2-ylamino]ethylamino]pyridine-3-carbonitrile]
differentiation of Wolffian duct cells (OSR1^−GATA3^+PAX2^+) from anterior intermediate mesoderm cells ([1]; immunostaining): enhanced OSR1^−GATA3^+PAX2^− cell differentiation; also recorded: enhanced the differentiation

C/C(=C\c1ccc(C(=O)O)cc1)c1ccc2c(c1)C(C)(C)CCC2(C)C [TTNPB, 4-[(E)-2-(5,6,7,8-Tetrahydro-5,5,8,8-tetramethyl-2-naphthalenyl)-1-propenyl]-benzoic acid]
differentiation of Wolffian duct cells (OSR1^−GATA3^+PAX2^+) from anterior intermediate mesoderm cells ([1]; immunostaining): early Wolffian duct cells were stably generated

O=C(Nc1cccc2cccnc12)c1ccc(N2C(=O)[C@@H]3[C@H](C2=O)[C@@H]2C=C[C@H]3C2)cc1 [IWR-1]
GATA3 and PAX2 expressions [1, 3]: diminished GATA3 and PAX2 expressions | OSR1 expression [1, 3]: prolonged OSR1 expression | differentiation of Wolffian duct cells (OSR1^−GATA3^+PAX2^+) from anterior intermediate mesoderm cells ([1]; immunostaining): inhibited the Wolffian duct induction

c1ccc2c(-c3cnn4cc(-c5ccc(N6CCNCC6)cc5)cnc34)ccnc2c1 [LDN193189, 4-(6-(4-(piperazin-1-yl)phenyl)pyrazolo[1,5-a]pyrimidin-3-yl)quinoline]
differentiation of Wolffian duct cells (OSR1^−GATA3^+PAX2^+) from anterior intermediate mesoderm cells ([1]; immunostaining): enhanced the Wolffian duct induction | effect on induction efficiency / differentiation of OSR1^+GATA3^+ cells [2]: did not change the induction efficiency

B1: GDNF: glial cell line-derived neurotrophic factor (R&D Systems) (protein, UniProt P39905 78-211, looked up)
Glial cell line-derived …: SPDKQMAVLPRRERNRQAAAANPENSRGKGRRGQRGKNRGCVLTAIHLNVTDLGLGYETKEELIFRYCSGSCDAAETTYDKILKNLSRNRRLVSDKVGQACCRPIAFDDDLSFLDDNLVYHILRKHSAKRCGCI
Total cell numbers after treatment [1]: 2.37±0.56 ×10^5/cm^2 | number of GATA3^+ (Wolffian duct) cells [1]: increased the number of GATA3^+ Wolffian duct cells

B2: FGF8: fibroblast growth factor (FGF) 8 (Peprotech) (protein, UniProt P55075 23-233, looked up)
Fibroblast growth factor 8: QEGPGRGPALGRELASLFRAGREPQGVSQQHVREQSLVTDQLSRRLIRTYQLYSRTSGKHVQVLANKRINAMAEDGDPFAKLIVETDTFGSRVRVRGAETGLYICMNKKGKLIAKSNGKGKDCVFTEIVLENNYTALQNAKYEGWYMAFTRKGRPRKGSKTRQHQREVHFMKRLPRGHHTTEQSLRFEFLNYPPFTRSLRGSQRTWAPEPR
Total cell numbers after treatment [1]: 4.69±0.65 ×10^5/cm^2 | differentiation of Wolffian duct cells (OSR1^−GATA3^+PAX2^+) from anterior intermediate mesoderm cells ([1]; immunostaining): enhanced the Wolffian duct induction | number of GATA3^+ (Wolffian duct) cells [1]: increased the number of GATA3^+ cells

B3: BMP4: bone morphogenetic protein (BMP)4 (PeproTech) (protein, UniProt P12644 293-408, looked up)
Bone morphogenetic protein 4: SPKHHSQRARKKNKNCRRHSLYVDFSDVGWNDWIVAPPGYQAFYCHGDCPFPLADHLNSTNHAIVQTLVNSVNSSIPKACCVPTELSAISMLYLDEYDKVVLKNYQEMVVEGCGCR
differentiation of Wolffian duct cells (OSR1^−GATA3^+PAX2^+) from anterior intermediate mesoderm cells ([1]; immunostaining): suppressed Wolffian duct differentiation; also recorded: inhibited the differentiation of Wolffian duct cells | induction rates of GATA3^+ cells ([2]; FIG. 1H, 10 ng/ml BMP4 at APS induction stage, 0.1 μM LDN193189 at anterior IM induction stage, mean±s.d., n=4): 69.1±13.9% | effect on induction efficiency / differentiation of OSR1^+GATA3^+ cells [2]: inhibited the differentiation | OSR1^+GATA3^+ cell induction rate ([2]; added to the anterior primitive streak induction stage): around 70 % of the total cells obtained | effect on OSR1^+GATA3^+ cell induction ([2]; added to the anterior primitive streak induction stage, 10 ng/ml BMP4, immunostaining): facilitated the OSR1^+GATA3^+ cell induction
